Laboratory results from publication PMC6151491, “In Vitro Evaluation of Third Generation PAMAM Dendrimer Conjugates” (Molecules : A Journal of Synthetic Chemistry and Natural …, 2017).

Tested on: Caco-2 cells
Experiment: Lactate dehydrogenase leakage (LDH) assay
Assay type: cell-based, Human
Conditions: 3 h incubation, mean ± S.D., n = 4, read-out: IC50 (viability of Caco-2 cells, LDH assay)
Protocol: Human intestinal adenocarcinoma cells (Caco-2) (passage 110–120) were seeded at 10,000 cells/well in 96-well plates and maintained at 37 °C in an atmosphere of 5% CO2 and 95% relative humidity in Dulbecco’s Modified Eagle’s Medium (DMEM) supplemented with 1% foetal bovine serum, 1% non-essential amino acids, 50 IU/mL penicillin. and […] streptomycin. After 24 h the medium was removed and the cells were washed in phosphate buffered saline and 200 µL Hanks Balanced Salt Solution (HBSS) containing G3 PAMAM dendrimer, conjugates or G0 PAMAM dendrimer at different concentrations (concentrations were calculated using the average molecular weight (Table 1) for each conjugate as a whole macromolecule). Caco-2 cell monolayers were also treated with blank HBSS and 1% Triton X-100 as low and high controls, respectively. After 3 h of incubation at 37 °C, 100 µL/well supernatant was removed carefully and transferred into corresponding wells of an optically clear 96-well flat bottom microplate. LDH leakage in the compartment was quantified using an LDH assay kit.
The percentage was calculated using the following equation:Cytotoxicity (%) = ((exp. − low control)/(high control − low control)) × 100 where exp. is the experimental value.

lauroyl-G0-diethylene glycol-naproxen [L-G0-deg-NAP]
IC50: 3.18 ± 0.455 mM
